Test [1] concerns nitrification of ammonium nitrogen. In words: Suppression of nitrification of ammonium nitrogen in soil. The note with it: 27° C. The essentials: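 Soil (20 g) moistened to its 1/3 bar tension value, mixed with test chemical and incubated sealed for two weeks at 27° C. Nitrate extracted with ammonium sulfate solution and measured by nitrate-specific ion electrode; value given as % NH4-N remaining.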

The test system of the next test is johnson grass. In words: Postemergent control of plant species. It is filed as in vivo, Sorghum halepense. The note with it: Sorghum halepense, post-emergence, 336 h, read-out: percent postemergent control. How it is done: (§1) In representative operations, each compound to be utilized in a series of tests is dissolved in acetone to one-half of the final volume (twice the final concentration) to be used and the acetone solution in each case is admixed with an equal volume of water containing 0.1 percent by weight of surface active material. The compositions, generally in the nature of an emulsion, were employed to spray separate respective plant species which had been grown to a 2-4 leaf stage in soil of good nutrient content in a greenhouse. The various beds were positioned side by side and exposed to substantially identical conditions of temperature and light. Each bed was maintained so as to prevent any interaction with test compounds in different seed beds. Other plants were left untreated to serve as controls. After treatment, the plants were maintained for about two weeks under greenhouse conditions conducive for good plant growth and watered as necessary. Control refers to the reduction in growth compared to the observed results of the same untreated species.

The test system of a further test is cocklebur. In words: Postemergent control of plant species. It is filed as in vivo, Xanthium spp. The note with it: Xanthium strumarium, post-emergence, 336 h, read-out: percent postemergent control. The method, then: as §1
A further test deals with corn. In words: Postemergent control of plant species. It is filed as in vivo, Zea mays. The conditions noted are these: Zea mays, post-emergence, 336 h, read-out: percent postemergent control. The method, then:
as §1

The next test relates to rape. In words: Postemergent control of plant species. Type of test: in vivo, Brassica napus. The note with it: Brassica napus, post-emergence, 336 h, read-out: percent postemergent control. How it is done:
as §1

A further test deals with jimsonweed. The test can be described thus: Postemergent control of plant species. It is filed as in vivo, Datura stramonium. The note with it: Datura stramonium, post-emergence, 336 h, read-out: percent postemergent control. The method, then: as §1
A further test concerns yellow nutsedge. The test can be described thus: Postemergent control of plant species. The conditions noted are these: Cyperus, post-emergence, 336 h, read-out: percent postemergent control. Type of test: in vivo, Cyperus esculentus. The method, then: as §1
The subject of a further test is sorghum. In words: Postemergent control of plant species. Type of test: in vivo, Sorghum vulgare. The conditions noted are these: Sorghum, post-emergence, 336 h, read-out: percent postemergent control. How it is done:
as §1

For a further test, the system named is barnyardgrass. In words: Postemergent control of plant species. Type of test: in vivo, Echinochloa crusgalli. The note with it: Echinochloa crus-galli, post-emergence, 336 h, read-out: percent postemergent control. How it is done: as §1
The subject of the next test is annual morning glory. The test can be described thus: Postemergent control of plant species. It is filed as in vivo, Ipomoea spp. The conditions noted are these: Ipomoea, post-emergence, 336 h, read-out: percent postemergent control. How it is done: as §1
The next test relates to cotton. The test can be described thus: Postemergent control of plant species. Type of test: in vivo, Gossypium spp. The note with it: Gossypium hirsutum, post-emergence, 336 h, read-out: percent postemergent control. How it is done: as §1
Another test has as its system velvetleaf. In words: Postemergent control of plant species. Type of test: in vivo, Abutilon theophrasti. The note with it: Abutilon theophrasti, post-emergence, 336 h, read-out: percent postemergent control. How it is done:
as §1

The test system of a further test is crabgrass. The test can be described thus: Postemergent control of plant species. The note with it: Digitaria sanguinalis, post-emergence, 336 h, read-out: percent postemergent control. It is filed as in vivo, Digitaria spp. How it is done:
as §1

The next test relates to wheat. The test can be described thus: Postemergent control of plant species. Type of test: in vivo, Triticum aestivum. The conditions noted are these: Triticum aestivum, post-emergence, 336 h, read-out: percent postemergent control. The method, then: as §1
The next test deals with sugar beet. In words: Postemergent control of plant species. The note with it: Beta vulgaris, post-emergence, 336 h, read-out: percent postemergent control. It is filed as in vivo, Beta saccharifera. How it is done: as §1
The subject of another test is yellow foxtail. The test can be described thus: Postemergent control of plant species. It is filed as in vivo, Setaria lutescens. The note with it: Setaria, post-emergence, 336 h, read-out: percent postemergent control. How it is done: as §1
In the next test the test system is soybean. In words: Postemergent control of plant species. It is filed as in vivo, Glycine max. The conditions noted are these: Glycine max, post-emergence, 336 h, read-out: percent postemergent control. How it is done:
as §1

The next test has as its system rice. The test can be described thus: Postemergent control of plant species. It is filed as in vivo, Oryza sativa. The conditions noted are these: Oryza sativa, post-emergence, 336 h, read-out: percent postemergent control. The method, then:
as §1

Another test has as its system wild oats. In words: Postemergent control of plant species. The note with it: Avena fatua, post-emergence, 336 h, read-out: percent postemergent control. It is filed as in vivo, Avena fatua. The method, then:
as §1

The subject of the next test is pigweed. The test can be described thus: Postemergent control of plant species. Type of test: in vivo, Amaranthus spp. The conditions noted are these: Amaranthus retroflexus, post-emergence, 336 h, read-out: percent postemergent control. The method, then: as §1

`Cc1ccc(NS(=O)(=O)c2nc3nc(C)cc(C)n3n2)c(Cl)c1` [Compound 48]: the “% NH4-N Remaining After 2 Weeks Incubation” value is 0% in [1] (0.01 ppm), 3% in test [1] (0.1 ppm), 56% in test [1] (1 ppm) and 93% in test [1] (10 ppm). Further, the pest or weed control at 500 ppm in the test on johnson grass is 0%; with cocklebur, 70%; in the test with jimsonweed, 30%; with yellow nutsedge, 0%; in the test on barnyardgrass, 0%; in the test on annual morning glory it was 60%. Also, the pest or weed control at 500 ppm in the test on velvetleaf is 40%; in the test with crabgrass, 0%; with yellow foxtail, 0%; in the test on wild oats, 0%. For the same molecule, the plant injury at 500 ppm amounted to 0% in the test with corn; 75% in the test with rape; 0% in the test on sorghum; 10% in the test on cotton; 0% in the test with wheat; 70% in the test with sugar beet. Besides, the plant injury at 500 ppm in the test on soybean stood at 55%; in the test with rice, 0%.
Turning to `Cc1ccn2nc(S(=O)(=O)N(C(=O)N(C)C)c3c(Cl)cccc3Cl)nc2n1` [Compound 273], the pest or weed control at 500 ppm with johnson grass was determined as 30%; in the test with cocklebur, 40%; in the test with pigweed, 100%; with jimsonweed it was 100%; in the test with yellow nutsedge it was 40%; in the test with barnyardgrass it was 20%. The pest or weed control at 500 ppm with annual morning glory came out at 80%; in the test with velvetleaf it was 50%; with crabgrass, 100%; with yellow foxtail it was 75%; in the test on wild oats, 0%. In addition, the plant injury at 500 ppm was found to be 0% in the test on corn; 100% in the test with rape; 40% with sorghum; 0% in the test on wheat; 100% in the test with sugar beet; 40% in the test with soybean. In addition, the plant injury at 500 ppm in the test on rice stood at 20%.
On to `O=S(=O)(Nc1ccccc1C(F)(F)F)c1nc2ncc(Cl)cn2n1` [Compound 118], for which the “% NH4-N Remaining After 2 Weeks Incubation” value in [1] (0.06 ppm) is 30%; in test [1] (0.25 ppm) it was 37%; in test [1] (1 ppm), 61%; in test [1] (4 ppm), 85%. Besides, the pest or weed control at 500 ppm turned out to be 0% in the test with johnson grass; 100% in the test with cocklebur; 70% in the test on pigweed; 100% in the test with jimsonweed; 70% in the test with yellow nutsedge; 0% with barnyardgrass. Besides, the pest or weed control at 500 ppm in the test on annual morning glory turned out to be 70%; in the test with velvetleaf it was 80%; in the test with crabgrass it was 60%; with yellow foxtail, 20%; in the test on wild oats, 0%. The plant injury at 500 ppm was determined as 0% with corn; 80% in the test on rape; 0% in the test on sorghum; 0% in the test on cotton; 100% in the test on sugar beet; 0% in the test with soybean. The plant injury at 500 ppm with rice came to 0%.
As to `Cc1cc(C)n2nc(S(=O)(=O)Nc3c(Cl)cc(Cl)cc3Cl)nc2n1` [Compound 35, 5,7-dimethyl-N-(2,4,6-trichlorophynyl)-1,2,4-trizaolo[1,5-a]pyrimidine-2-sulfonamide], the “% NH4-N Remaining After 2 Weeks Incubation” value in [1] (0.01 ppm) amounted to 0%; in test [1] (0.1 ppm), 3%; in test [1] (1 ppm) it was 50%; in test [1] (10 ppm), 78%. Further, the pest or weed control at 500 ppm in the test on johnson grass came out at 0%; in the test with cocklebur, 95%; with pigweed, 90%; in the test with jimsonweed, 30%; with yellow nutsedge, 0%; in the test on barnyardgrass it was 0%. Besides, the pest or weed control at 500 ppm in the test on annual morning glory turned out to be 40%; with velvetleaf, 0%; in the test with crabgrass, 0%; in the test with yellow foxtail, 0%; with wild oats it was 0%. The plant injury at 500 ppm in the test on corn was determined as 0%; in the test with rape, 70%; in the test on sorghum, 20%; in the test on cotton it was 0%; in the test with sugar beet, 80%; in the test on soybean, 70%. Besides, the plant injury at 500 ppm in the test with rice was 0%.
`Cc1cc(C)n2nc(S(=O)(=O)Nc3c(F)c(F)cc(F)c3F)nc2n1` [Compound 90]: the pest or weed control at 500 ppm in the test on johnson grass worked out at 20%; in the test on cocklebur it was 75%; with pigweed it was 100%; in the test on jimsonweed it was 70%; in the test on yellow nutsedge, 0%; in the test with barnyardgrass, 0%. In addition, the pest or weed control at 500 ppm with annual morning glory is 30%; with velvetleaf it was 50%; in the test on yellow foxtail it was 70%; in the test with wild oats, 0%. Moreover, the plant injury at 500 ppm was 0% with corn; 70% in the test with rape; 0% in the test on sorghum; 0% in the test on cotton; 0% with wheat; 50% with soybean. Moreover, the plant injury at 500 ppm in the test with rice is 0%.
With `Cc1cc(C)n2nc(S(=O)(=O)Nc3ccccc3S(C)(=O)=O)nc2n1` [Compound 45], the “% NH4-N Remaining After 2 Weeks Incubation” value came out at 0% in test [1] (0.01 ppm), 3% in [1] (0.1 ppm), 45% in test [1] (1 ppm) and 94% in test [1] (10 ppm). Besides, the pest or weed control at 500 ppm in the test on johnson grass stood at 0%; with cocklebur, 25%; in the test on jimsonweed, 0%; in the test with yellow nutsedge, 0%; in the test on barnyardgrass, 0%; in the test with annual morning glory it was 10%. The pest or weed control at 500 ppm was 50% in the test on velvetleaf, 0% in the test on crabgrass, 0% in the test with yellow foxtail and 0% with wild oats. The plant injury at 500 ppm is 0% in the test with corn; 70% in the test on rape; 0% with sorghum; 0% with cotton; 0% in the test with wheat; 70% with sugar beet. Besides, the plant injury at 500 ppm stood at 60% with soybean and 50% in the test with rice.

For the origin of these results see patent US4740233A, “Substituted 1,2,4-triazolo[1,5-a]-pyrimidine-2-sulfonamides and compositions and methods of controlling undesired vegetation and suppressing the nitrification of ammonium nitrogen in soil” (The Dow Chemical Company, priority 1986, dated 1988).
